Entries after “also recorded” stand apart in the source; their conditions may differ.
Key:
[1] = tested on: C4-2B MDVR cells; assay: Cell growth assay (cell numbers), C4-2B MDVR; type: cell-based; details: for cell growth: increasing doses of niclosamide/analogs, FIG. 6; for synergy with abiraterone in inhibiting cell growth / synergy with enzalutamide in inhibiting cell growth: C4-2BMDVR, FIG. 10; for synergy with abiraterone in inhibiting cell growth: analog 0.25 μM + abiraterone 5 μM; for synergy with enzalutamide in inhibiting cell growth: analog 0.25 μM + enzalutamide 20 μM
[2] = tested on: CWR22Rv1 cells; assay: Cell growth assay (cell numbers), CWR22Rv1; type: cell-based; details: for cell growth: CWR22Rv1, 48 hours, increasing doses of niclosamide/analogs, FIG. 6
[3] = tested on: AR; assay: Western blot of AR expression in CWR22Rv1 cell lysates; type: cell-based; details: CWR22Rv1 cells, FIG. 2A
Procedure: (§1) “AR-Variants” represents a combination of all forms of AR.
(§2) The effects of the synthetic small molecule modulators on AR and AR variant expression were determined. CWR22Ry1 prostate cancer cells were treated with different compounds. Protein lysates were analyzed for AR and AR variant expression.

[4] = tested on: CWR22Rv1 cells; assay: Cell growth assay (cell numbers), CWR22Rv1; type: cell-based; details: for cell growth, combination with bicalutamide: CWR22Rv1, analog 0.25 μM + bicalutamide 20 μM, 0, 3, 5 days; for cell growth, combination with enzalutamide: CWR22Rv1, analog 0.25 μM + enzalutamide 20 μM, 0, 3, 5 days; for cell growth, combination with enzalutamide / cell growth, combination with abiraterone: FIGS. 9, 11; for cell growth, niclosamide analog alone: CWR22Rv1, analog 0.25 μM, 0, 3, 5 days, FIGS. 9, 11, 12; for synergy with abiraterone in inhibiting cell growth: CWR22Rv1, analog 0.25 μM + abiraterone 5 μM; for cell growth, combination with abiraterone: CWR22Rv1, analog 0.25 μM + abiraterone 5 μM, 0, 3, 5 days; for synergy with enzalutamide in inhibiting cell growth: CWR22Rv1, analog 0.25 μM + enzalutamide 20 μM
Procedure: DMSO treatment was used as a negative control. Total cell numbers were counted at 0, 3, and 5 days.
DMSO treatment was used as a negative control. Total cell numbers were counted at 0, 3, and 5 days. […]
The cell growth was determined at 3,5 days. […] The cell growth was determined at 3,5 days.

[5] = target: T1, AR-V7 (Homo sapiens, UniProt P10275); assay: Western blot of AR-V7 expression in CWR22Rv1 cell lysates; type: cell-based; set-up: endogenous in cells; host or cells: CWR22Rv1 prostate cancer cells (also grown as xenograft tumours); details: CWR22Rv1 cells, FIG. 2A
T1 sequence (P10275 1-644 isoform P10275-3): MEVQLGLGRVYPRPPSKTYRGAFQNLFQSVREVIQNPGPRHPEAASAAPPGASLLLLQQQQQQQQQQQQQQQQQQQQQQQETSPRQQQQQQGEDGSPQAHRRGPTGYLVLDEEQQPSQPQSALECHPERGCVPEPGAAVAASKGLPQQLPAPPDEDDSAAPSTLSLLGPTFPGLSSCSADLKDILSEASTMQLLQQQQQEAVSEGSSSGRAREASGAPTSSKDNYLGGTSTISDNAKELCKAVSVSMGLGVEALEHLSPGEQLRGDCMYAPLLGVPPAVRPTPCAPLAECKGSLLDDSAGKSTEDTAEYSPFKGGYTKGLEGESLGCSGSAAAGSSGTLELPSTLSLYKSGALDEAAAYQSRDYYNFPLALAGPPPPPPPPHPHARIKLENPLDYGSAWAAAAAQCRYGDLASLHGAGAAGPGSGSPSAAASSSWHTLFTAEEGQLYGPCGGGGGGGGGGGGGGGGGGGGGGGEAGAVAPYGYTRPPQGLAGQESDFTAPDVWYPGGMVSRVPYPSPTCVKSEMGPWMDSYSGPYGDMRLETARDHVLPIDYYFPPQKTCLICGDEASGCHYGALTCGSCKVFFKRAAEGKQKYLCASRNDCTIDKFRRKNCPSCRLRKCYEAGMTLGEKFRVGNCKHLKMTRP
Procedure: as §1, §2

[6] = tested on: PSA; assay: PSA protein expression by ELISA in C4-2 cells overexpressing AR-V7; type: cell-based; details: C4-2-V7 cells, FIG. 3
Procedure: PSA protein expression was determined by ELISA assay. * denotes p<0.05.

[7] = tested on: C4-2B AbiR cells; assay: Cell growth assay (cell numbers), C4-2B AbiR; type: cell-based; details: 0.5 μM + enzalutamide, 48 hours, FIG. 7C
[8] = tested on: C4-2-V7 cells; assay: Cell growth assay (cell numbers), C4-2-V7; type: cell-based; details: C4-2-V7, 0.5 μM + enzalutamide, 48 hours, FIG. 7D
[9] = tested on: C4-2BMDVR cells; assay: ELISA cell death (apoptosis) assay; type: cell-based; details: FIG. 8
Procedure: To further examine the anti-cancer effects of these compounds, an ELISA cell death assay was performed.

[10] = target: T1, AR-V7; assay: PSA-luc reporter in LNCaP cells co-transfected with AR-V7; details: LNCaP cells co-transfected with AR-V7, FIG. 4
Procedure: The luciferase activity was then determined. * denotes p<0.05.
In addition, the effects on AR transcriptional activity were determined using PSA-luc as a reporter. LNCaP cells were cotransfected with PSA-luc together with or without AR-V7, and treated with the compounds.

SMILES | AR expression [3] | cell growth, combination with enzalutamide [4] | cell growth, niclosamide analog alone [4] | AR-V7 (AR variant) expression [5] | synergy with abiraterone in inhibiting cell growth [4] | cell growth, combination with abiraterone [4] | also measured
CNC(=O)c1ccc(N2C(=S)N(c3cnc(C#N)c(C(F)(F)F)c3)C(=O)C23CCC3)cc1F [ARN509, reference compound] |  |  |  |  |  |  | cell growth ([1]; C4-2B MDVR, 48 hours): did not inhibit; cell growth [2]: did not inhibit
O=C(Nc1ccc([N+](=O)[O-])cc1Cl)c1cccc(Cl)c1 [Compound 1] | no effect | nor the was the combination of these compounds with enzalutamide or abiraterone able to inhibit | Neither of Compounds 1 or 34 alone were able to inhibit; also recorded: None of Compounds 1, 7, 30, 31, or 34 alone were able to inhibit | no effect |  |  | cell growth, combination with bicalutamide ([4]; FIG. 12): not able to inhibit; synergy with abiraterone in inhibiting cell growth [1]: neither Compound 1 nor Compound 34 were able to synergize; synergy with enzalutamide in inhibiting cell growth [1]: neither Compound 1 nor Compound 34 were able to synergize
O=C(Nc1ccc([N+](=O)[O-])cc1Cl)c1ccccc1O [Compound 2] | no effect | nor was a combination of either of these compounds with enzalutamide or abiraterone able to inhibit | neither Compounds 2 nor Compound 17 alone were able to inhibit | no effect | but not Compounds 2 and 17, were able to synergize | nor was a combination of either of these compounds with enzalutamide or abiraterone able to inhibit | 
O=C(Nc1cc(C(F)(F)F)cc(C(F)(F)F)c1)c1cc(Cl)ccc1O [Compound 5] | inhibited |  |  | inhibited |  |  | 
O=C(Nc1ccccc1Cl)c1cc(Cl)ccc1O [Compound 8] | no effect |  |  | no effect |  |  | 
O=C(Nc1cc(C(F)(F)F)cc(C(F)(F)F)c1)c1cc(Cl)ccc1O [Compound 11] |  | able to significantly inhibit |  |  | able to synergize | able to significantly inhibit | synergy with enzalutamide in inhibiting cell growth [4]: able to synergize
O=C(Nc1cc(F)cc(F)c1)c1cc(Cl)ccc1O [Compound 17] | no effect | nor was a combination of either of these compounds with enzalutamide or abiraterone able to inhibit | neither Compounds 2 nor Compound 17 alone were able to inhibit | no effect | but not Compounds 2 and 17, were able to synergize | nor was a combination of either of these compounds with enzalutamide or abiraterone able to inhibit | 
O=C(O)COc1ccc(Cl)cc1C(=O)Nc1ccc([N+](=O)[O-])cc1Cl [Compound 29] | no effect |  |  | no effect |  |  | 
CCC(=O)Oc1ccc(Cl)cc1C(=O)Nc1ccc([N+](=O)[O-])cc1Cl [Compound 30] | inhibited | significantly inhibited | None of Compounds 1, 7, 30, 31, or 34 alone were able to inhibit | inhibited | able to synergize | significantly inhibited | PSA expression ([6]; compound alone, ELISA): inhibited; enzalutamide-mediated PSA inhibition ([6]; in presence of enzalutamide (MDV)): further enhanced; cell growth, combination with bicalutamide ([4]; FIG. 12): able to significantly inhibit; synergy with bicalutamide in inhibiting cell growth ([4]; CWR22Rv1, analog 0.25 μM + bicalutamide 20 μM, FIG. 12): able to synergize; synergy with enzalutamide in inhibiting cell growth [4]: able to synergize; cell proliferation, combination with enzalutamide (MDV) ([1]; C4-2B MDVR, 0.5 μM + enzalutamide, 48 hours, FIG. 7B): further inhibited; synergy with abiraterone in inhibiting cell growth [1]: able to synergize; synergy with enzalutamide in inhibiting cell growth [1]: able to synergize; cell proliferation, combination with enzalutamide (MDV) [7]: further inhibited; cell proliferation, combination with enzalutamide (MDV) [8]: further inhibited; cell apoptosis ([9]; compound alone, analogs compared with niclosamide): further enhanced; apoptotic cell death, combination with enzalutamide (MDV) ([9]; with enzalutamide): further increased; cell proliferation, combination with enzalutamide (MDV) ([2]; CWR22Rv1, 0.5 μM + enzalutamide, 48 hours, FIG. 7A): further inhibited; AR-V7 mediated PSA-luc activity [10]: inhibited
COC(=O)COc1ccc(Cl)cc1C(=O)Nc1ccc([N+](=O)[O-])cc1Cl [Compound 34] | no effect | nor the was the combination of these compounds with enzalutamide or abiraterone able to inhibit | Neither of Compounds 1 or 34 alone were able to inhibit; also recorded: None of Compounds 1, 7, 30, 31, or 34 alone were able to inhibit | no effect |  |  | cell growth, combination with bicalutamide ([4]; FIG. 12): not able to inhibit; synergy with abiraterone in inhibiting cell growth [1]: neither Compound 1 nor Compound 34 were able to synergize; synergy with enzalutamide in inhibiting cell growth [1]: neither Compound 1 nor Compound 34 were able to synergize
CC(C)(C)OC(=O)COc1ccc(Cl)cc1C(=O)Nc1ccc([N+](=O)[O-])cc1Cl [Compound 35] | no effect |  |  | no effect |  |  | 
C[C@]12CC[C@H](O)CC1=CC[C@@H]1[C@@H]2CC[C@]2(C)C(c3cccnc3)=CC[C@@H]12 [abiraterone, reference compound] |  |  |  |  |  |  | cell growth ([1]; C4-2B MDVR, 48 hours): did not inhibit; cell growth [2]: did not inhibit
CNC(=O)c1ccc(N2C(=S)N(c3ccc(C#N)c(C(F)(F)F)c3)C(=O)C2(C)C)cc1F [enzalutamide, reference compound] |  |  |  |  |  |  | cell growth, antiandrogen alone ([4]; CWR22Rv1, enzalutamide 20 μM or abiraterone 5 μM, 0, 3, 5 days, FIG. 9): resistant; cell growth ([1]; C4-2B MDVR, 48 hours): did not inhibit; cell growth [2]: did not inhibit

From US20200009088A1, “COMPOSITIONS AND METHODS FOR TREATING ANDROGEN-INDEPENDENT CANCER” (The Regents of the University of California, priority 2017, published 2020)
